# Results taken from patent US20150018411A1, “COMPOUNDS AS PPAR BETA/DELTA INHIBITORS FOR TREATING PPAR BETA/DELTA-MEDIATED DISEASES” (PHILIPPS-UNIVERSITAT MARBURG, priority 2011, published 2015).
# “Also recorded” adds a separate entry of the source.
# Tests used:
# [1] = biological target: T1, GST-PPAR beta/delta LBD (Homo sapiens, UniProt Q03181); assay: Competitive in vitro ligand binding, TR-FRET, displacement of Fluormone Pan-PPAR-Green; details: fluorescence ratio 520 nm/495 nm
# T1 construct: GST-PPAR beta/delta LBD (GST=glutathione S-transferase); purchased Invitrogen, Darmstadt, Germany
# T1 sequence (Q03181 211-439 limits assumed): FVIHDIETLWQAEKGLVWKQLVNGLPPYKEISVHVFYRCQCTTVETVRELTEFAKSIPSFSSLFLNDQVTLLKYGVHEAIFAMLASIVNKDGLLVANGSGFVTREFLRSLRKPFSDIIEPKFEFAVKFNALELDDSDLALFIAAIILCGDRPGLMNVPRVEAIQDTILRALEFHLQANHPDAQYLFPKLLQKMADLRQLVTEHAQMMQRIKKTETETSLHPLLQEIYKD
# Procedure: FIG. 1: Competitive in vitro ligand binding to PPAR beta/delta. • The displacement of ligand Fluormone® Pan-PPAR Green from recombinant GST-PPAR beta/delta ligand binding domain (LBD) by the substances of the present invention comparative compound (CC) 2, compound 1 (A), compound 2 (B), and compound 3 (C), compound 4 (D), compound 5 (E) is determined by TR-FRET analysis. Shown is the ratio of fluorescence intensity at 520 nm (fluorescein emission, excited by terbium emission) and 495 nm (terbium emission). All data points represent average values of triplicates (+/−standard deviation).
# A) Competitive ligand-binding of the substances of this invention was measured in vitro using time-resolved fluorescence resonance energy transfer (TR-FRET) by competition with the commercially available fluorescent Fluormone® Pan-PPAR-Green for binding to the fusion protein GST-PPAR beta/delta LBD (GST=glutathione S-transferase; LBD=ligand binding domain) (Invitrogen, Darmstadt, Germany) in a VICTOR3V Multilabel Counter (WALLAC 1420; PerkinElmer Life and Analytical Sciences, Rodgau, Germany). The measurement was performed in 100 mM KC, 20 mM Tris pH 7.9, 0.01% Triton X100 and 1 μg/μL bovine serum albumin. GST is known to the expert in the field as suitable fusion partner for proteins. For this purpose, the ratio of fluorescence intensities at 520 nm (fluorescein emission excited by terbium emission) and at 495 nm (terbium emission) is determined.
# [2] = biological target: T1, GST-PPAR beta/delta LBD; assay: Ligand-induced binding of corepressor peptide SMRT-ID2, TR-FRET; assay type: biochemical; details: concentration dependent
# Procedure: FIG. 2: Induction of corepressor peptide binding to GST-PPAR beta/delta ligand binding domain (LBD) in vitro in dependency of the concentration of the substances of this invention comparative compound (CC) 2, compound 1 (A), compound 2 (B), compound 3 (C), compound 4 (D) and compound 5 (E). The interaction of fluorescein-labeled SMRT-ID2 peptide with recombinant GST-PPAR beta/delta LBD bound to a terbium-labeled anti-GST antibody is determined by TR-FRET analysis. Shown is the ratio of fluorescence intensity at 520 nm (fluorescein emission, excited by terbium emission) and 495 nm (terbium emission). All data points represent average values of triplicates (+/−standard deviation).
# B) The ligand-induced binding of the commercially available fluorescein-labeled corepressor peptide SMRT-ID2 ([…]) (Invitrogen, Darmstadt, Germany) to GST-PPAR beta/delta is for example measured by TR-FRET analysis using a terbium-labeled anti-GST antibody in a VICTOR3V Multilabel Counter (WALLAC 1420; PerkinElmer Life and Analytical Sciences, Rodgau, Germany). The measurement is performed in a buffer composed of 100 mM KC, 20 mM Tris pH 7.9, 0.01% Triton X100 and 1 μg/μL bovine serum albumin.
# [3] = biological target: T2, PPAR beta/delta (Homo sapiens, UniProt Q03181); assay: Agonist-induced transcriptional activity, luciferase reporter in WPMY-1 cells; assay type: cell-based; details: human WPMY-1 myofibroblasts, 500 nM substance, 500 nM agonist L165041
# T2 construct: expressed in transfected cells; host or cells: WPMY-1 human myofibroblasts, transient transfection with PEI
# T2 sequence (Q03181 1-441): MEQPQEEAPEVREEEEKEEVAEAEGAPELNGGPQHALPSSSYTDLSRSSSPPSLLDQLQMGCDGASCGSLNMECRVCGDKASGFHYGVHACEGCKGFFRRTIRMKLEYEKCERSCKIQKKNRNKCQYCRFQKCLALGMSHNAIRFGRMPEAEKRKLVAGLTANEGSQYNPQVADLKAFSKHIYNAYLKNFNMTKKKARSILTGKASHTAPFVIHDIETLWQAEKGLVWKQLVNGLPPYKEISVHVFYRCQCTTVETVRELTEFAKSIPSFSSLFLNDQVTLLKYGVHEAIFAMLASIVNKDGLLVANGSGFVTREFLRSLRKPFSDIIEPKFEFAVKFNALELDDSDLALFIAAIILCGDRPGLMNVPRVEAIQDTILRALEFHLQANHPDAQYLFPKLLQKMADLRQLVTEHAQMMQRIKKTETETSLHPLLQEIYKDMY
# Procedure: FIG. 4: Effect of the substances of this invention comparative compound (CC) 2, compound 1, compound 5, compound 2 and compound 3 on the agonist-induced transcriptional activity of PPAR subtypes alpha (A), beta/delta (B) and gamma (C). • WPMY-1 cells are transiently transfected with a luciferase reporter plasmid. Four hours after transfection, cells are treated for 48 hours with the respective antagonist (500 nM), followed by a treatment with 300 nM of PPAR alpha agonist GW7647 (A), 500 nM of PPAR beta/delta agonist L165041 (B) or 300 nM of PPAR gamma agonist GW1929 (C). The relative induction is represented by the luciferase activity of the agonist-treated transfected cells in relation to solvent-treated transfected cells. Asterisks (**, *) indicate significant differences to untreated cells (after t-test; **: p<0.01; *: p<0.05). GW7647 is commercially available from Sigma-Aldrich (Steinheim, Germany). L165041 and GW1929 can be obtained from Biozol (Eching, Germany).
# D) The influence of substances of this invention on the agonist-induced transcriptional activity of PPAR subtypes alpha, beta/delta or gamma is determined in WPMY-1 myofibroblasts transfected transiently with a luciferase reporter plasmid (LexA system) using polyethyleneimine (PEI) according to a method known to the expert. As agonists, substances GW7647 for PPAR alpha or L165041 for PPAR beta/delta or GW1929 for PPAR gamma known to the expert are used. WPMY-1 myofibroblast cells are initially cultured for example in a 12-well plate in DMEM medium (DMEM: Dulbecco's Modified Eagle Medium) according to a method known to the expert and to a confluence of 70% to 80%, and subsequently transfected with 2.5 μg of plasmid-DNA containing the luciferase reporter plasmid, expression plasmids for the respective PPAR subtypes and the Renilla-luciferase plasmid pRL-SV40 (Promega, Mannheim, Germany), and 2.5 μl PEI (1:1000 dilution, pH 7). Four hours after transfection, the cells are treated for 48 hours with 500 nM of the substances of this invention, and 24 later with 300 nM (GW7647 or GW1929, respectively) or 500 nM (L165041) of the respective agonist at 37° C. and 5% CO2 in an incubator. The luciferase assay is performed 48 hours after the first treatment according to the commercial method of the “dual-well-system” (pjk GmbH, Kleinblittersdorf, Germany), whereby for a normalization, not only the luciferase-, but also the Renilla activity is measured. Cells are initially lysed for this measurement, and 20 μl of the lysate is transferred into a white 96-well plate (Fisher Scientific, Hamburg, Germany). […] Mean values and standard deviation are calculated from values of three independent measurements.
# [4] = test system: ANGPTL4 gene expression; assay: ANGPTL4 gene expression (qPCR) in WPMY-1 myofibroblasts; assay type: cell-based, human; details: WPMY-1, 1 μM, 24 hours, compared to DMSO-treated cells
# Procedure: FIG. 5: Influence of the substances of this invention comparative compound (CC) 2, compound 1, compound 5, compound 2 and compound 3 on ANGPTL4 gene expression. • (A) Comparison of relative ANGPTL4 expression, (B) mean inhibitory concentration of substances of this invention. (A) Human myofibroblasts (WPMY-1) are treated for 24 hours with the substances of this invention (1 μM), then RNA is isolated, the cDNA synthesized and analyzed by qPCR, normalized to L27 gene expression. (B) Titration of the effect of substances of this invention on the endogenous ANGPTL4 expression in WPMY-1 cells (left) or peritoneal mouse macrophages (right) after cells have been treated for six hours with the substances of this invention compound 1 and compound 2, respectively; RNA isolation, cDNA synthesis and qPCR as described for (A). The relative expression is calculated in relation to DMSO-treated cells. All values are average values of triplicates (+1-standard deviation). Asterisks (***, **, *) indicate significant differences to DMSO-treated cells (***: p<0.001 after t-test; *: p <0.05).
# The influence of substances of this invention on PPAR-beta/delta regulated genes like for example ANGPTL4 which codes for the angiopoietin-like protein ANGPTL4 is assessed in different cells with a confluence of 70% to 80% in a 6-well cell culture plate. For this purpose, cultivated human myofibroblasts (WPMY-1), peritoneal mouse macrophages or cells of the human breast cancer cell line MDA-MB-231 are treated for 24 hours with 1 μM of the substances of this invention. Cells of the breast cancer cell line are in addition stimulated for 6 hours with TGF-beta2 (2 ng/ml) which is commercially available. Subsequently, RNA is isolated from the cells by procedures known to the expert and analyzed by quantitative PCR (qPCR, real time qPCR, RT-qPCR) also known to those skilled in the art. […]
Structure (SMILES),competition with Fluormone Pan-PPAR-Green for binding to GST-PPAR beta/delta LBD [1],induction of interaction of PPAR beta/delta LBD with corepressor peptide SMRT-ID2 [2],agonist-induced transcriptional activity of PPAR beta/delta (luciferase induction) [3],reduction of relative expression of the ANGPTL4 gene [4]
"COC(=O)c1sccc1S(=O)(=O)Nc1ccc(NCc2ccccc2)cc1OC [compound 4, methyl 3-(N-(4-(benzylamino)-2-methoxyphenyl)sulfamoyl)thiophene-2-carboxylate]",significant competition efficacy; also recorded: significant competition efficiency,clearly demonstrate the interaction; also recorded: induce,,
"COC(=O)c1sccc1S(=O)(=O)Nc1ccc(NCCC(C)C)cc1OC [compound 3, methyl 3-(N-(4-(isopentylamino)-2-methoxyphenyl)sulfamoyl)thiophene-2-carboxylate]",significant competition efficacy; also recorded: significant competition efficiency,clearly demonstrate the interaction; also recorded: induce,inhibited in a PPAR subtype-specific manner,
"COC(=O)c1sccc1S(=O)(=O)Nc1ccc(N2CCOCC2)cc1OC [comparison compound 2, methyl 3-(N-(2-methoxy-4-morpholinophenyl)sulfamoyl)thiophene-2-carboxylate, reference compound]",,,,up to 10%
